IC50 data for 38 compounds are collected here from ChEMBL document CHEMBL2094269, “WEHI/Eskitis Trypanosoma b. brucei screening data”.

SMILES strings stand for the structures.

Data set [1] is described as follows: DNDI: Cytotoxicity against human MRC-5 lung fibroblast cells. Particulars: IC50.
Data set [2] relates to Trypanosoma brucei brucei. Kind of data set: microbe, parasite or virus in culture. Format: functional, organism-based, STIB 795. Particulars: Trypanosoma brucei, STIB 795.
Description: DNDI: Inhibition of Human African Trypanosomiasis (HAT), STIB 795, in vitro

As to `CCN1C=Cc2ccccc2/C1=C\c1ccc2ccccc2[n+]1CC`, the IC50 (usually the point on the concentration scale where inhibition reaches its midpoint) in data set [1] was > 4.17 µM; in data set [2], 0.086 µM.

With `N=C(NOC(=O)N1CCOCC1)c1ccc(Br)cc1`, the IC50 in data set [1] was > 20.8 µM; in data set [2] it was 0.748 µM.

Take `CCCn1c(=O)c2c(nc3n2CCN3Cc2ccco2)n(C)c1=O`: the values for the IC50 in data set [1] and in data set [2] were > 41.7 µM and 4.91 µM, respectively.

As for `Cc1cc(NCCN2CCOCC2)c2ccc3ccccc3c2n1`, the IC50 in data set [1] was > 20.8 µM; in data set [2] it was 4.87 µM.

As for `CCN(CC)CCn1nc2c3c(cccc3c1=O)-c1ccccc1-2`, the figures for the IC50 in data set [1] and in data set [2] were 1.46 µM and 1.58 µM, respectively.

Turning to `CC(Nc1nc(N2CCNCC2)nc2ccccc12)c1ccccc1` (stereo unspecified), the results for the IC50 in data set [1] and in data set [2] were > 4.17 µM and 1.47 µM, respectively.

Regarding `O=C(NCCc1csc(-c2cccc(F)c2)n1)c1cccs1`, the values for the IC50 in data set [1] and in data set [2] were > 41.7 µM and ≤ 0.043 µM, respectively.

As for `c1ccc(Sc2cccc3ccccc23)c(CNC2=NCCN2)c1`, the concentration for half-maximal inhibition (IC50) in data set [1] was > 20.8 µM; in data set [2] it was 0.428 µM.

Take `NCC12CC3CC(C1)CC(c1ccc(Br)cc1)(C3)C2`: the half-inhibitory concentration (IC50) in data set [1] came out at 6.72 µM; in data set [2], 0.687 µM.

With `Cc1ccccc1C(O)(Cc1ccccc1)C1CN2CCC1CC2` (stereo unspecified), the half-maximal inhibitory concentration (IC50) in data set [1] was > 4.17 µM; in data set [2], 4.69 µM.

Regarding `COc1ccc(CNCCc2c[nH]c3ccccc23)c(OC)c1C`, the IC50 in data set [1] was > 20.8 µM; in data set [2], 5.26 µM.

In the case of `COc1ccc(C(=O)O/N=C(\N)Cc2cccs2)cc1OC`, the IC50 in data set [1] is > 20.8 µM; in data set [2], 1.61 µM.

On to `CC(C)N1C/C(=C/c2ccccn2)C(=O)/C(=C/c2ccccn2)C1`, for which the IC50 in data set [1] is 5.78 µM; in data set [2] it was 0.236 µM.

Consider `CC(C)(C)c1ccc(CN2CCCn3c2nc2ccccc23)cc1`, for which the figures for the IC50 in data set [1] and in data set [2] were > 20.8 µM and 5.62 µM, respectively.

With `Cc1cccc(CN2CCN(Cc3c[nH]c4ccccc34)CC2)c1`, the IC50 in data set [1] is > 20.8 µM; in data set [2], 5.24 µM.

Take `CCOc1cc(CNCCc2cccc(Cl)c2)ccc1OC`: the 50% inhibitory concentration (IC50) in data set [1] is > 20.8 µM; in data set [2], 4.84 µM.

With `O=C(NNC(=O)c1ccccn1)c1cccc(Br)c1`, the IC50 in data set [1] is > 4.17 µM; in data set [2], 1.74 µM.

Take `COc1ccc(C/C(N)=N/OC(=O)c2cccs2)cc1OC`: the concentration for half-maximal inhibition (IC50) in data set [1] is > 41.7 µM; in data set [2], 4.78 µM.

For `Cc1cc(C)c2nc(C)cc(Nc3ccc4c(c3)OCCO4)c2c1`, the IC50 is > 41.7 µM in data set [1] and 3.91 µM in data set [2].

Take `Cc1c(-c2cccc3c2OC(C)(C)C3)ccc2nc(N)nc(N)c12`: the IC50 is > 4.17 µM in data set [1] and ≤ 1.95 µM in data set [2].

With `CC(C)(C)OC(=O)N/N=C\c1ccc(-c2cccc(Cl)c2)o1`, the IC50 is > 41.7 µM in data set [1] and 7.35 µM in data set [2].

As to `Nc1nc(NN2CCCCC2)nc(-c2cc(Cl)ccc2O)n1`, the IC50 in data set [1] is > 20.8 µM; in data set [2], 4.15 µM.

Take `CCc1cc(C2CCCN2C(=O)c2c(F)cccc2Cl)on1` (stereo unspecified): the figures for the 50% inhibitory concentration (IC50) in data set [1] and in data set [2] were > 41.7 µM and 5.12 µM, respectively.

Consider `Oc1c(Br)cc(CN2CCOCC2)c2cccnc12`, for which the IC50 in data set [1] was > 20.8 µM; in data set [2], 1.1 µM.

In the case of `COC(=O)c1cn(NC(=O)c2ccccn2)c(=O)c2ccccc12`, the IC50 was > 10.4 µM in data set [1] and 0.63 µM in data set [2].

For the compound `CC(C)(C)c1ccc(Cn2c(=N)n(CCO)c3ccccc32)cc1`, the 50% inhibitory concentration (IC50) in data set [1] was > 41.7 µM; in data set [2] it was 4.96 µM.

As to `Cc1ccccc1OCCn1c(=N)n(CC(C)C)c2ccccc21`, the 50% inhibitory concentration (IC50) in data set [1] was > 20.8 µM; in data set [2], 5.64 µM.

Regarding `Cc1nnc(N/N=C/c2cc(Br)ccc2O)nc1O`, the values for the half-inhibitory concentration (IC50) in data set [1] and in data set [2] were 3.41 µM and 3 µM, respectively.

As to `CC(C)CC(=O)/C(=C/c1ccc(Cl)cc1Cl)n1cncn1`, the 50% inhibitory concentration (IC50) was > 20.8 µM in data set [1] and 2.27 µM in data set [2].

Take `CC1(C)CC(=O)C/C(=N/NC(=O)c2cc3ccccc3cc2O)C1`: the IC50 is > 41.7 µM in data set [1] and < 0.1 µM in data set [2].

Turning to `COc1cccc(NC(=O)CSc2cccc3cccnc23)c1`, the figures for the concentration for half-maximal inhibition (IC50) in data set [1] and in data set [2] were > 41.7 µM and 5.79 µM, respectively.

As for `N#Cc1ccc(-c2ccncc2)nc1SCCN1CCCCC1`, the IC50 in data set [1] is > 41.7 µM; in data set [2], 7.34 µM.

As for `O=C(N/N=C/c1ccc(-c2ccccc2Cl)o1)c1ccccc1`, the IC50 in data set [1] was > 41.7 µM; in data set [2], < 0.004 µM.

Turning to `O=C(N/N=C/c1ccc(Cl)cc1Cl)c1ccc(O)c(O)c1`, the IC50 is > 20.8 µM in data set [1] and 1.54 µM in data set [2].

Regarding `CCn1nc(/C=C/c2ccccc2)[n+]([O-])c2c(=O)n(C)c(=O)nc1-2`, the IC50 in data set [1] is > 20.8 µM; in data set [2], 3.67 µM.

For the compound `CNCCC(Sc1ccc(C(F)(F)F)cc1)c1ccccc1` (stereo unspecified), the 50% inhibitory concentration (IC50) in data set [1] was > 20.8 µM; in data set [2], 1.9 µM.

In the case of `CN1/C(=C/C=C/c2ccc3ccccc3[n+]2C)C=Cc2ccccc21`, the figures for the IC50 in data set [1] and in data set [2] were > 10.4 µM and 0.077 µM, respectively.

For `CC1CCC(C(C)C)C(OCC(O)CN2C(C)CCCC2C)C1` (stereo unspecified), the half-inhibitory concentration (IC50) was > 20.8 µM in data set [1] and 3.51 µM in data set [2].
